Test results taken from patent US10626126B2, “Compounds” (Pulmocide Limited, priority 2016, dated 2020).

Experiments:
Type in all cases: cell-based
[1] = Cell viability: resazurin assay; settings: human, HEp2 cells
Protocol: HEp2 cells were seeded in 384-well plates (10^3/well/50 μL; BD Falcon Ref 353962) in FBS DMEM (5%, containing 2 mM L-glutamine and 1 mM sodium pyruvate) one day before experimentation. Serum-free DMEM (50 μL) was added to test wells, while for control wells the media was removed and sterile water (100 μL) added. Test compounds (0.5 μL DMSO solution) were added to give a final DMSO concentration of 0.5%. HEp2 cells were incubated with each test compound for 5 days (37° C./5% CO2 in 2.5% FBS) and then resazurin stock solution (5 μL; 0.03%) was added to each well and the plate incubated for a further 6 hr (37° C./5% CO2). The fluorescence of each well at 545 nm (excitation) and 590 nm (emission) was determined using a multi-scanner (Clariostar: BMG Labtech). The percentage loss of cell viability was calculated for each well relative to vehicle (0.5% DMSO) treatment. Note that any apparent increase in cell viability associated with test compound treatment relative to vehicle is consequently tabulated as a negative percentage. Where appropriate, a CC50 value was calculated from the concentration-response curve generated from the concentration-response curve for each test compound.

RSV B Washington strain = experiment: RSV B induced CPE in HEp2 cells; settings: human respiratory syncytial virus; for IC50: HEp-2, 144 h, 6 days; for inhibition at 1 µg/mL: HEp-2, at 1 μg/mL; for inhibition at 0.1 µg/mL: HEp-2, at 0.1 μg/mL
Protocol: (§1) HEp2 cells were seeded (10^3/well/50 μL) in 384-well plates (Catalogue number 353962, BD Falcon, Oxford, UK) in 5% FBS-DMEM (containing 2 mM L-glutamine and 1 mM sodium pyruvate) one day before infection. […] Simultaneously, test compounds (0.5 μL DMSO solution) were added to 100 μL of HEp2 cell culture with virus solution to provide a final DMSO solution of 0.5%. […] Sigma-Aldrich, Dorset, UK) was added to each well and the plate incubated for a further 6 hr (37° C./5% CO2). The fluorescence of each well [545 nm (excitation)/590 nm (emission)] was determined using a multi-scanner (Clariostar: BMG, Buckinghamshire, UK). The percentage inhibition for each well was calculated and the IC50, IC75 and IC90 values were calculated from the concentration-response curve generated for each test compound.

RSV A2 strain = experiment: RSV A2 induced CPE in HEp2 cells; settings: human respiratory syncytial virus; for IC50: HEp-2, 120 h, 5 days; for inhibition at 0.01 µg/mL: HEp-2, at 0.01 μg/mL
Protocol: as §1

Row | IC50 (RSV B Washington strain) | IC50 (RSV A2 strain) | Structure (SMILES) | CC50 at 5 days [1] | inhibition at 1 µg/mL (RSV B Washington strain) | inhibition at 0.01 µg/mL (RSV A2 strain) | inhibition at 0.1 µg/mL (RSV B Washington strain)
1 | 0.49 µM | 0.0036 µM | O=C(Nc1c(F)cccc1F)c1cc2c(s1)-c1sccc1N(C(=O)c1ccc(NC(=O)c3cccnc3N3CCC4(CC3)COC4)cc1)CC2 [Example 29, 4-(4-(2-(2-oxa-7-azaspiro[3.5]nonan-7-yl)nicotinamido)benzoyl)-N-(2,6-difluorophenyl)-5,6-dihydro-4H-dithieno [3,2-b:2′,3′-d]azepine-8-carboxamide] | > 14 µM | 51% | 100% | 
2 | 0.602 µM | 0.00059 µM | Cc1cnc(N2CC3(COC3)C2)c(C(=O)Nc2ccc(C(=O)N3CCc4cc(C(=O)Nc5c(F)cccc5F)sc4-c4sccc43)cc2)c1 [Example 32, N-(2,6-difluorophenyl)-4-(4-(5-methyl-2-(2-oxa-6-azaspiro[3.3]heptan-6-yl)nicotinamido)benzoyl)-5,6-dihydro-4H-dithieno[3,2-b:2′,3′-d]azepine-8-carboxamide] | > 14.3 µM | 90% | 100% | 
3 | 0.123 µM | 0.00075 µM | Cc1cnc(N2CC3(CCOCC3)C2)c(C(=O)Nc2ccc(C(=O)N3CCc4cc(C(=O)Nc5ccc(F)cc5F)sc4-c4sccc43)cc2)c1 [Example 10, N-(2,4-difluorophenyl)-4-(4-(5-methyl-2-(7-oxa-2-azaspiro[3.5]nonan-2-yl)nicotinamido)benzoyl)-5,6-dihydro-4H-dithieno[3,2-b:2′,3′-d]azepine-8-carboxamide] | > 13.8 µM | 100% | 97% | 
4 | 0.019 µM | 0.00055 µM | Cc1ccc(C(=O)Nc2ccc(C(=O)N3CCc4cc(C(=O)Nc5c(F)cccc5F)sc4-c4sccc43)c(F)c2)c(N2CC3(CCOCC3)C2)n1 [Example 5, N-(2,6-Difluorophenyl)-4-(2-fluoro-4-(6-methyl-2-(7-oxa-2-azaspiro[3.5]nonan-2-yl)nicotinamido)benzoyl)-5,6-dihydro-4H-dithieno[3,2-b:2′,3′-d]azepine-8-carboxamide] | > 13.4 µM |  | 89% | 97%
5 | 0.017 µM | 0.00037 µM | Cc1ccc(C(=O)Nc2ccc(C(=O)N3CCc4cc(C(=O)Nc5c(F)cccc5F)sc4-c4sccc43)cc2)c(N2CC3(CCOCC3)C2)n1 [Example 21, N-(2,6-difluorophenyl)-4-(4-(6-methyl-2-(7-oxa-2-azaspiro [3.5]nonan-2-yl)nicotinamido)benzoyl)-5,6-dihydro-4H-dithieno[3,2-b:2′,3′-d]azepine-8-carboxamide] | > 13.8 µM |  | 91% | 91%
6 | 0.063 µM | 0.00044 µM | O=C(Nc1c(F)cccc1F)c1cc2c(s1)-c1sccc1N(C(=O)c1ccc(NC(=O)c3cccnc3N3CC4(CCOCC4)C3)cc1)CC2 [Example 6, 4-(4-(2-(7-oxa-2-azaspiro[3.5]nonan-2-yl)nicotin-amido)benzoyl)-N-(2,6-difluorophenyl)-5,6-dihydro-4H-dithieno[3,2-b:2′,3′-d]azepine-8-carboxamide] | > 14 µM | 95% | 93% | 
7 | 0.029 µM | 0.00018 µM | Cc1cnc(N2CC3(CCOCC3)C2)c(C(=O)Nc2ccc(C(=O)N3CCc4cc(C(=O)Nc5c(F)cccc5Cl)sc4-c4sccc43)c(F)c2)c1 [Example 19, N-(2-chloro-6-fluorophenyl)-4-(2-fluoro-4-(5-methyl-2-(7-oxa-2-azaspiro[3.5]nonan-2-yl)nicotinamido)benzoyl)-5,6-dihydro-4H-dithieno[3,2-b:2′,3′-d]azepine-8-carboxamide] | > 13.2 µM | 86% | 93% | 
8 | 0.0087 µM | 0.00037 µM | O=C(Nc1c(F)cccc1F)c1cc2c(s1)-c1sccc1N(C(=O)c1ccc(NC(=O)c3cc4c(nc3N3CC5(CCOCC5)C3)CCC4)cc1)CC2 [Example 2, 4-(4-(2-(7-Oxa-2-azaspiro[3.5]nonan-2-yl)-6,7-dihydro-5H-cyclopenta[b]pyridine-3-carboxamido)benzoyl)-N-(2,6-difluorophenyl)-5,6-dihydro-4H-dithieno[3,2-b: 2′,3′-d]azepine-8-carboxamide] | > 13.3 µM |  | 97% | 86%
9 | 0.018 µM | 0.00017 µM | COc1cnc(N2CC3(CCOCC3)C2)c(C(=O)Nc2ccc(C(=O)N3CCc4cc(C(=O)Nc5c(F)cccc5F)sc4-c4sccc43)cc2)c1 [Example 20, N-(2,6-difluorophenyl)-4-(4-(5-methoxy-2-(7-oxa-2-azaspiro[3.5]nonan-2-yl)nicotinamido)benzoyl)-5,6-dihydro-4H-dithieno[3,2-b:2′,3′-d]azepine-8-carboxamide] | > 13.5 µM |  | 100% | 100%
10 | 0.01 µM | 0.00018 µM | O=C(Nc1c(F)cccc1F)c1cc2c(s1)-c1sccc1N(C(=O)c1ccc(NC(=O)c3cc4c(nc3N3CC5(CCOCC5)C3)CCOC4)cc1)CC2 [Example 25, N-(4-(8-((2,6-difluorophenyl)carbamoyl)-5,6-dihydro-4H-dithieno[3,2-b:2′,3′-d]azepine-4-carbonyl)phenyl)-2-(7-oxa-2-azaspiro[3.5]nonan-2-yl)-7,8-dihydro-5H-pyrano[4,3-b]pyridine-3-carboxamide] | > 13 µM |  | 100% | 89%
11 | 0.017 µM | 0.001 µM | Cc1cccc(F)c1NC(=O)c1cc2c(s1)-c1sccc1N(C(=O)c1ccc(NC(=O)c3cc4c(nc3N3CC5(CCOCC5)C3)CCOC4)cc1)CC2 [Example 26, N-(4-(8-((2-fluoro-6-methylphenyl)carbamoyl)-5,6-dihydro-4H-dithieno[3,2-b:2′,3′-d]azepine-4-carbonyl)phenyl)-2-(7-oxa-2-azaspiro[3.5]nonan-2-yl)-7,8-dihydro-5H-pyrano[4,3-b]pyridine-3-carboxamide] | > 13.1 µM |  | 98% | 93%
12 | 0.137 µM | 0.00068 µM | Cc1cnc(N2CC3(CCOCC3)C2)c(C(=O)Nc2ccc(C(=O)N3CCc4cc(C(=O)Nc5ccccc5)sc4-c4sccc43)cc2)c1 [Example 8, 4-(4-(5-methyl-2-(7-oxa-2-azaspiro[3.5]nonan-2-yl)nicotinamido)benzoyl)-N-phenyl-5,6-dihydro-4H-dithieno [3,2-b:2′,3′-d]azepine-8-carboxamide] | > 14.5 µM | 97% | 100% | 
13 | 0.054 µM | 0.00018 µM | Cc1cnc(N2CC3(CCOCC3)C2)c(C(=O)Nc2ccc(C(=O)N3CCc4cc(C(=O)Nc5ccccc5F)sc4-c4sccc43)cc2)c1 [Example 9, N-(2-fluorophenyl)-4-(4-(5-methyl-2-(7-oxa-2-azaspiro[3.5]nonan-2-yl)nicotinamido)benzoyl)-5,6-dihydro-4H-dithieno[3,2-b:2′,3′-d]azepine-8-carboxamide] | > 14.1 µM |  | 100% | 100%
